Assay results from ChEMBL document CHEMBL3045546, “Synthesis and antimicrobial screening of 4-thiazolidinone and 2-azetidinone derivatives of piperazine” (2013).
Values after ≈ are worked out from the molar mass of the structure shown.

Legend:
Type in all cases: functional
Aspergillus niger = assay: Antimicrobial activity against Aspergillus niger ATCC 9142 assessed as growth inhibition by broth dilution method
Rhizoctonia solani = assay: Antimicrobial activity against Rhizoctonia solani ATCC 76131 assessed as growth inhibition by broth dilution method
[1] = test system: Staphylococcus epidermidis; assay: Antimicrobial activity against Staphylococcus epidermidis ATCC 12228 assessed as growth inhibition by broth dilution method
Micrococcus luteus = assay: Antimicrobial activity against Micrococcus luteus ATCC 4698 assessed as growth inhibition by broth dilution method
Proteus vulgaris = assay: Antimicrobial activity against Proteus vulgaris ATCC 13315 assessed as growth inhibition by broth dilution method
Microsporum canis = assay: Antimicrobial activity against Arthroderma otae ATCC 11622 assessed as growth inhibition by broth dilution method
Salmonella typhi = assay: Antimicrobial activity against Salmonella enterica subsp. enterica serovar Typhi ATCC 19430 assessed as growth inhibition by broth dilution method
Aspergillus fumigatus = assay: Antimicrobial activity against Aspergillus fumigatus assessed as growth inhibition by broth dilution method
Pseudomonas aeruginosa = assay: Antimicrobial activity against Pseudomonas aeruginosa ATCC 10145 assessed as growth inhibition by broth dilution method
Bacillus subtilis = assay: Antimicrobial activity against Bacillus subtilis ATCC 6633 assessed as growth inhibition by broth dilution method
Trichophyton longifusum = assay: Antimicrobial activity against Trichophyton longifusum ATCC 22397 assessed as growth inhibition by broth dilution method
Proteus mirabilis = assay: Antimicrobial activity against Proteus mirabilis ATCC 49565 assessed as growth inhibition by broth dilution method
Alternaria alternata = assay: Antimicrobial activity against Alternaria alternata ATCC 66868 assessed as growth inhibition by broth dilution method
Staphylococcus aureus = assay: Antimicrobial activity against Staphylococcus aureus ATCC 25923 assessed as growth inhibition by broth dilution method
Staphylococcus hominis = assay: Antimicrobial activity against Staphylococcus hominis ATCC 27844 assessed as growth inhibition by broth dilution method
Aspergillus flavus = assay: Antimicrobial activity against Aspergillus flavus ATCC 15517 assessed as growth inhibition by broth dilution method
Bacillus pumilus = assay: Antimicrobial activity against Bacillus pumilus ATCC 14884 assessed as growth inhibition by broth dilution method
Aspergillus awamori = assay: Antimicrobial activity against Aspergillus awamori ATCC 22342 assessed as growth inhibition by broth dilution method
Fusarium solani = assay: Antimicrobial activity against Fusarium solani ATCC 38136 assessed as growth inhibition by broth dilution method
Bacillus cereus = assay: Antimicrobial activity against Bacillus cereus ATCC 11778 assessed as growth inhibition by broth dilution method
Escherichia coli = assay: Antimicrobial activity against Escherichia coli ATCC 25922 assessed as growth inhibition by broth dilution method
Trichoderma viride = assay: Antimicrobial activity against Hypocrea rufa ATCC 52440 assessed as growth inhibition by broth dilution method
Klebsiella pneumoniae = assay: Antimicrobial activity against Klebsiella pneumoniae ATCC 13883 assessed as growth inhibition by broth dilution method
Candida albicans = assay: Antimicrobial activity against Candida albicans ATCC 10231 assessed as growth inhibition by broth dilution method

SMILES | MIC (Aspergillus niger) [mg/L] | MIC (Rhizoctonia solani) [mg/L] | MIC [1] [mg/L] | MIC (Micrococcus luteus) [mg/L] | MIC (Proteus vulgaris) [mg/L] | MIC (Microsporum canis) [mg/L] | MIC (Salmonella typhi) [mg/L] | MIC (Aspergillus fumigatus) [mg/L] | MIC (Pseudomonas aeruginosa) [mg/L] | MIC (Bacillus subtilis) [mg/L] | MIC (Trichophyton longifusum) [mg/L] | MIC (Proteus mirabilis) [mg/L] | MIC (Alternaria alternata) [mg/L] | MIC (Staphylococcus aureus) [mg/L] | MIC (Staphylococcus hominis) [mg/L] | MIC (Aspergillus flavus) [mg/L] | MIC (Bacillus pumilus) [mg/L] | MIC (Aspergillus awamori) [mg/L] | MIC (Fusarium solani) [mg/L] | MIC (Bacillus cereus) [mg/L] | other results
O=C1CSC(c2ccc(O)cc2)N1CCN1CCNCC1 (centres undefined) | 18.8 (≈ 61 µM) | 18.8 (≈ 61 µM) | 9.37 (≈ 30.5 µM) | 9.37 (≈ 30.5 µM) | 4.68 (≈ 15.2 µM) | 18.8 (≈ 61 µM) | 9.37 (≈ 30.5 µM) | 9.37 (≈ 30.5 µM) | 9.37 (≈ 30.5 µM) | 4.68 (≈ 15.2 µM) | 9.73 (≈ 31.7 µM) | 9.37 (≈ 30.5 µM) | 18.8 (≈ 61 µM) | 9.37 (≈ 30.5 µM) | 9.37 (≈ 30.5 µM) | 18.8 (≈ 61 µM) | 9.37 (≈ 30.5 µM) | 18.8 (≈ 61 µM) | 9.73 (≈ 31.7 µM) | 9.37 (≈ 30.5 µM) | MIC (Escherichia coli): 4.68 mg/L (≈ 15.2 µM); MIC (Trichoderma viride): 18.8 mg/L (≈ 61 µM); MIC (Klebsiella pneumoniae): 9.37 mg/L (≈ 30.5 µM); MIC (Candida albicans): 9.73 mg/L (≈ 31.7 µM)
O=C(CCl)N1CCN(CCN2C(=O)C(Cl)C2c2cccc(O)c2)CC1 (centres undefined) | 37.5 (≈ 97.1 µM) | 37.5 (≈ 97.1 µM) | 18.8 (≈ 48.5 µM) | 18.8 (≈ 48.5 µM) | 18.8 (≈ 48.5 µM) | 75 (≈ 194 µM) | 37.5 (≈ 97.1 µM) | 75 (≈ 194 µM) | 37.5 (≈ 97.1 µM) | 18.8 (≈ 48.5 µM) | 75 (≈ 194 µM) | 37.5 (≈ 97.1 µM) | 37.5 (≈ 97.1 µM) | 37.5 (≈ 97.1 µM) | 37.5 (≈ 97.1 µM) | 75 (≈ 194 µM) | 37.5 (≈ 97.1 µM) | 75 (≈ 194 µM) | 37.5 (≈ 97.1 µM) | 37.5 (≈ 97.1 µM) | MIC (Escherichia coli): 18.8 mg/L (≈ 48.5 µM); MIC (Trichoderma viride): 37.5 mg/L (≈ 97.1 µM); MIC (Klebsiella pneumoniae): 37.5 mg/L (≈ 97.1 µM); MIC (Candida albicans): 37.5 mg/L (≈ 97.1 µM)
O=C1CSC(c2cccc(O)c2)N1CCN1CCNCC1 (centres undefined) | 37.5 (≈ 122 µM) | 37.5 (≈ 122 µM) | 18.8 (≈ 61 µM) | 18.8 (≈ 61 µM) | 37.5 (≈ 122 µM) | 37.5 (≈ 122 µM) | 18.8 (≈ 61 µM) | 37.5 (≈ 122 µM) | 37.5 (≈ 122 µM) | 37.5 (≈ 122 µM) | 37.5 (≈ 122 µM) | 18.8 (≈ 61 µM) | 75 (≈ 244 µM) | 37.5 (≈ 122 µM) | 37.5 (≈ 122 µM) | 37.5 (≈ 122 µM) | 37.5 (≈ 122 µM) | 37.5 (≈ 122 µM) | 75 (≈ 244 µM) | 18.8 (≈ 61 µM) | MIC (Escherichia coli): 37.5 mg/L (≈ 122 µM); MIC (Trichoderma viride): 37.5 mg/L (≈ 122 µM); MIC (Klebsiella pneumoniae): 37.5 mg/L (≈ 122 µM); MIC (Candida albicans): 37.5 mg/L (≈ 122 µM)
COc1ccc(C2SCC(=O)N2CCN2CCNCC2)cc1O (centres undefined) | 18.8 (≈ 55.6 µM) | 9.37 (≈ 27.8 µM) | 9.37 (≈ 27.8 µM) | 9.37 (≈ 27.8 µM) | 9.37 (≈ 27.8 µM) | 9.37 (≈ 27.8 µM) | 9.37 (≈ 27.8 µM) | 9.37 (≈ 27.8 µM) | 9.37 (≈ 27.8 µM) | 9.37 (≈ 27.8 µM) | 18.8 (≈ 55.6 µM) | 9.37 (≈ 27.8 µM) | 18.8 (≈ 55.6 µM) | 9.37 (≈ 27.8 µM) | 9.37 (≈ 27.8 µM) | 9.37 (≈ 27.8 µM) | 9.37 (≈ 27.8 µM) | 9.37 (≈ 27.8 µM) | 18.8 (≈ 55.6 µM) | 4.68 (≈ 13.9 µM) | MIC (Escherichia coli): 9.37 mg/L (≈ 27.8 µM); MIC (Trichoderma viride): 18.8 mg/L (≈ 55.6 µM); MIC (Klebsiella pneumoniae): 4.68 mg/L (≈ 13.9 µM); MIC (Candida albicans): 9.37 mg/L (≈ 27.8 µM)
O=C1CSC(c2ccccc2)N1CCN1CCNCC1 (centres undefined) | 75 (≈ 257 µM) | 37.5 (≈ 129 µM) | 75 (≈ 257 µM) | 75 (≈ 257 µM) | 18.8 (≈ 64.3 µM) | 37.5 (≈ 129 µM) | 18.8 (≈ 64.3 µM) | 37.5 (≈ 129 µM) | 37.5 (≈ 129 µM) | 37.5 (≈ 129 µM) | 75 (≈ 257 µM) | 37.5 (≈ 129 µM) | 75 (≈ 257 µM) | 37.5 (≈ 129 µM) | 37.5 (≈ 129 µM) | 75 (≈ 257 µM) | 75 (≈ 257 µM) | 75 (≈ 257 µM) | 37.5 (≈ 129 µM) | 37.5 (≈ 129 µM) | MIC (Escherichia coli): 37.5 mg/L (≈ 129 µM); MIC (Trichoderma viride): 75 mg/L (≈ 257 µM); MIC (Klebsiella pneumoniae): 37.5 mg/L (≈ 129 µM); MIC (Candida albicans): 37.5 mg/L (≈ 129 µM)
O=C1CSC(c2ccco2)N1CCN1CCNCC1 (centres undefined) | 300 (≈ 1070 µM) | 150 (≈ 533 µM) | 300 (≈ 1070 µM) | 75 (≈ 267 µM) | 150 (≈ 533 µM) | 300 (≈ 1070 µM) | 75 (≈ 267 µM) | 150 (≈ 533 µM) | 75 (≈ 267 µM) | 75 (≈ 267 µM) | 300 (≈ 1070 µM) | 150 (≈ 533 µM) | 300 (≈ 1070 µM) | 150 (≈ 533 µM) | 75 (≈ 267 µM) | 150 (≈ 533 µM) | 150 (≈ 533 µM) | 150 (≈ 533 µM) | 300 (≈ 1070 µM) | 150 (≈ 533 µM) | MIC (Escherichia coli): 75 mg/L (≈ 267 µM); MIC (Trichoderma viride): 150 mg/L (≈ 533 µM); MIC (Klebsiella pneumoniae): 150 mg/L (≈ 533 µM); MIC (Candida albicans): 300 mg/L (≈ 1070 µM)
